{"source": "paper PMC9116245", "about": "“New 1,2,3-triazole linked ciprofloxacin-chalcones induce DNA damage by inhibiting human topoisomerase I& II and tubulin polymerization” (Journal of Enzyme Inhibition and Medicinal Chemistry, 2022)", "test_system": "U251", "format": "cell-based", "conditions": "Homo sapiens"}
{"smiles": "COc1cc(/C=C/C(=O)c2ccc(-n3cc(CN4CCN(c5cc6c(cc5F)c(=O)c(C(=O)O)cn6C5CC5)CC4)nn3)cc2)cc(OC)c1OC", "note": "[Compound 4j, (E)-1-cyclopropyl-6-fluoro-4-oxo-7–(4-((1–(4-(3-(3,4,5-trimethoxyphenyl)acryloyl)phenyl)-1H-1,2,3-triazol-4-yl)methyl)piperazin-1-yl)-1,4-dihydroquinoline-3-carboxylic acid]", "values": [{"measurement": "GI50", "setting": "U-251", "result": 1480, "unit": "nM"}, {"measurement": "CC50", "setting": "U-251, read-out: LC50 (the source's name)", "result": "> 100000", "unit": "nM"}]}
